Common to all, as to type: cell-based
In experiment [1] the test system is Proteus vulgaris. Put plainly: MIC against Gram-negative bacteria: Proteus vulgaris. To be noted: 5×10^5 CFU/mL. In short, it runs like this:
(§1)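 Inocula prepared by growing LB cultures at 37° C to 0.5 McFarland, centrifuging at 4000×g, and resuspending in fresh medium. Final density 5×10^5 CFU/mL per well with two-fold dilutions of purified EGF domain protein; shaking incubation at 37° C.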

The subject of experiment [2] is Pseudomonas aeruginosa. Put plainly: MIC against Gram-negative bacteria: Pseudomonas aeruginosa. To be noted: 5×10^5 CFU/mL. In short, it runs like this: as §1
Experiment [3] has as its system Enterobacter cloacae. Put plainly: MIC against Gram-negative bacteria: Enterobacter cloacae. The note with it: 5×10^5 CFU/mL. A digest of the protocol:
as §1

Experiment [4] deals with Proteus mirabilis. Put plainly: MIC against Gram-negative bacteria: Proteus mirabilis. The note with it: 5×10^5 CFU/mL. A digest of the protocol: as §1
Experiment [5] concerns E. coli DH5α. The experiment can be described thus: Antibacterial activity: MIC and growth curve against E. coli DH5α in 96-well plate. The note with it: minimal inhibitory concentration against E. coli DH5α; 96-well plate, 5×10^5 CFU/mL, 37° C., judged after 8 h. In short, it runs like this: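 Log-phase bacteria (OD600 ~0.5) resuspended in LB at 5×10^5 CFU/mL, exposed to recombinant protein at 50, 25, 12.5 μg/mL final in triplicate, 37 °C shaking at 175 rpm. OD600 read every 30 min; MIC is lowest concentration showing no growth.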

For experiment [6], the system named is Klebsiella pneumonia. The experiment can be described thus: MIC against Gram-negative bacteria: Klebsiella pneumonia. To be noted: 5×10^5 CFU/mL. A digest of the protocol: as §1
Experiment [7] relates to E. coli BL21. The experiment can be described thus: MIC against Gram-negative bacteria: E. coli BL21. To be noted: 5×10^5 CFU/mL. A digest of the protocol:
as §1

The test system of experiment [8] is Serratia marcescens. Put plainly: MIC against Gram-negative bacteria: Serratia marcescens. The note with it: 5×10^5 CFU/mL. A digest of the protocol: as §1
The test system of experiment [9] is Aeromonas hydrophila. The experiment can be described thus: MIC against Gram-negative bacteria: Aeromonas hydrophila. To be noted: 5×10^5 CFU/mL. A digest of the protocol:
as §1

In experiment [10] the test system is Citrobacter diversus. The experiment can be described thus: MIC against Gram-negative bacteria: Citrobacter diversus. The note with it: 5×10^5 CFU/mL. A digest of the protocol: as §1
Experiment [11] deals with Moraxella catarrhalis. The experiment can be described thus: MIC against Gram-negative bacteria: Moraxella catarrhalis. To be noted: 5×10^5 CFU/mL. In short, it runs like this:
as §1

Setting [12] is: E. coli BL21, 10 h cultivation at 37° C.

From US9833497B2, “Human originated EGF domain proteins and use of the same” (CHENGDU SOURCEBIO LIMITED-LIABILITY COMPANY, priority 2013, dated 2017) come the findings set out here.

The term MIC denotes the least concentration at which growth counts as inhibited. High values mean a less susceptible organism, low ones a more susceptible organism. Take “PRT602 (CKCHPQGSVGSSCSRLGGQCQCKPLVVGRCCDRCSTGSYDLGHHGCHP; listed as Homo sapiens)”: in experiment [1] (96-well plate, 37° C., 10 h), the “MIC P. vulgaris” value turned out to be 25 µg/mL. Moreover, in experiment [2] (96-well plate, 37° C., 10 h), the “MIC P. aeruginosa” value is 50 µg/mL. Further, the “MIC E. cloacae” value in [3] (96-well plate, 37° C., 10 h) amounted to 50 µg/mL. The “MIC P. mirabilis” value in [4] (96-well plate, 37° C., 10 h) was determined as 50 µg/mL. In experiment [5], this substance registered an MIC of 50 µg/mL. The “MIC K. pneumonia” value in experiment [6] (96-well plate, 37° C., 10 h) stood at 12.5 µg/mL. In addition, the “MIC E. coli BL21” value in experiment [7] (96-well plate, 37° C., 10 h) turned out to be 12.5 µg/mL. Moreover, the “MIC S. marcescens” value in experiment [8] (96-well plate, 37° C., 10 h) is 12.5 µg/mL. Further, in [9] (96-well plate, 37° C., 10 h), the “MIC A. hydrophila” value was 12.5 µg/mL. Also, the “MIC C. diversus” value in experiment [10] (96-well plate, 37° C., 10 h) worked out at 50 µg/mL. In experiment [11] (96-well plate, 37° C., 10 h), the “MIC M. catarrhalis” value stood at 12.5 µg/mL.
For “PRT520 (CRCNAGGSFSEVCHSQTGQCECRANVQGQRCDKCKAGTFGLQSARGCVP; listed as Homo sapiens)”, in experiment [1] (96-well plate, 37° C., 10 h), the “MIC against P. vulgaris” value is 12.5 µg/mL. Further, the “MIC against P. aeruginosa” value in [2] (96-well plate, 37° C., 10 h) was 25 µg/mL. Also, in experiment [3] (96-well plate, 37° C., 10 h), the “MIC against E. cloacae” value came to 25 µg/mL. Besides, the “MIC against P. mirabilis” value in [4] (96-well plate, 37° C., 10 h) was 25 µg/mL. In experiment [5], the minimal inhibitory concentration (MIC) is 25 µg/mL. For the same substance, the “MIC against K. pneumonia” value in [6] (96-well plate, 37° C., 10 h) is 12.5 µg/mL. In addition, the “MIC against E. coli BL21” value in experiment [7] (96-well plate, 37° C., 10 h) is 12.5 µg/mL. In addition, the “MIC against S. marcescens” value in [8] (96-well plate, 37° C., 10 h) was found to be 25 µg/mL. In addition, in experiment [9] (96-well plate, 37° C., 10 h), the “MIC against A. hydrophila” value worked out at 12.5 µg/mL. Further, the “MIC against C. diversus” value in [10] (96-well plate, 37° C., 10 h) was determined as 25 µg/mL. For the same substance, the “MIC against M. catarrhalis” value in experiment [11] (96-well plate, 37° C., 10 h) turned out to be 50 µg/mL.
With “PRT629 (CPCPGQSACTTIPESREVVCTHCPPGQRGRRCEVCDDGFFGDPLGLFGHPQPCHQ; listed as Homo sapiens)”, the “MIC P. vulgaris” value in experiment [1] (96-well plate, 37° C., 10 h) is 50 µg/mL. Besides, in experiment [2] (96-well plate, 37° C., 10 h), the “MIC P. aeruginosa” value was determined as 12.5 µg/mL. Besides, the “MIC E. cloacae” value in [3] (96-well plate, 37° C., 10 h) was 12.5 µg/mL. In addition, the “MIC P. mirabilis” value in experiment [4] (96-well plate, 37° C., 10 h) turned out to be 12.5 µg/mL. In experiment [5], this substance had an MIC of 12.5 µg/mL. Moreover, the “MIC K. pneumonia” value in experiment [6] (96-well plate, 37° C., 10 h) turned out to be 25 µg/mL. Also, the “MIC E. coli BL21” value in experiment [7] (96-well plate, 37° C., 10 h) amounted to 25 µg/mL. Further, the “MIC S. marcescens” value in experiment [8] (96-well plate, 37° C., 10 h) was found to be 12.5 µg/mL. The “MIC A. hydrophila” value in experiment [9] (96-well plate, 37° C., 10 h) is 12.5 µg/mL. Further, the “MIC C. diversus” value in experiment [10] (96-well plate, 37° C., 10 h) was 12.5 µg/mL. The “MIC M. catarrhalis” value in [11] (96-well plate, 37° C., 10 h) was determined as 12.5 µg/mL.
As for “PRT1358 (SQLACPSDCNDQGKCVNGVCICFEGYAGADCS; listed as Homo sapiens)”, in [1] (Proteus vulgaris, 10 h cultivation at 37° C.), the “MIC against P. vulgaris” value was determined as 25 µg/mL. Further, the “MIC against P. aeruginosa” value in experiment [2] (Pseudomonas aeruginosa, 10 h cultivation at 37° C.) was 50 µg/mL. For the same substance, in experiment [3] (Enterobacter cloacae, 10 h cultivation at 37° C.), the “MIC against E. cloacae” value stood at 12.5 µg/mL. For the same substance, the “MIC against P. mirabilis” value in [4] (Proteus mirabilis, 10 h cultivation at 37° C.) was found to be 12.5 µg/mL. Also, in experiment [5], the MIC came out at 50 µg/mL. Also, the “MIC against K. pneumonia” value in experiment [6] (Klebsiella pneumonia, 10 h cultivation at 37° C.) turned out to be 12.5 µg/mL. The “MIC against E. coli BL21” value in [7] (setting [12]) is 12.5 µg/mL. For the same substance, in [8] (Serratia marcescens, 10 h cultivation at 37° C.), the “MIC against S. marcescens” value is 12.5 µg/mL. For the same substance, the “MIC against A. hydrophila” value in [9] (Aeromonas hydrophila, 10 h cultivation at 37° C.) stood at 25 µg/mL. In addition, in experiment [10] (Citrobacter diversus, 10 h cultivation at 37° C.), the “MIC against C. diversus” value stood at 12.5 µg/mL. In addition, in experiment [11] (Moraxella catarrhalis, 10 h cultivation at 37° C.), the “MIC against M. catarrhalis” value turned out to be 25 µg/mL.
As for “PRT833 (CEANNGGCSHGCSHTSAGPLCTCPRGYELDTDQRTC; listed as Homo sapiens)”, in [1] (10 h cultivation at 37° C.), the “MIC (μg/mL) P. vulgaris” value amounted to 50 µg/mL. The “MIC (μg/mL) P. aeruginosa” value in [2] (10 h cultivation at 37° C.) was determined as 12.5 µg/mL. For the same substance, in experiment [3] (10 h cultivation at 37° C.), the “MIC (μg/mL) E. cloacae” value was 50 µg/mL. In addition, the “MIC (μg/mL) P. mirabilis” value in experiment [4] (10 h cultivation at 37° C.) worked out at 25 µg/mL. Further, the MIC in experiment [5] worked out at 12.5 µg/mL. Besides, the “MIC (μg/mL) K. pneumonia” value in [6] (10 h cultivation at 37° C.) is 12.5 µg/mL. In experiment [7] (setting [12]), the “MIC (μg/mL) E. coli BL21” value amounted to 25 µg/mL. The “MIC (μg/mL) S. marcescens” value in experiment [8] (10 h cultivation at 37° C.) turned out to be 12.5 µg/mL. The “MIC (μg/mL) A. hydrophila” value in experiment [9] (10 h cultivation at 37° C.) amounted to 12.5 µg/mL. The “MIC (μg/mL) C. diversus” value in [10] (10 h cultivation at 37° C.) is 50 µg/mL. Moreover, the “MIC (μg/mL) M. catarrhalis” value in [11] (10 h cultivation at 37° C.) was found to be 12.5 µg/mL.
Turning to “PRT156 (DINECDSNPCHHGGSCLDQPNGYNCHCPHGWVGANCE; listed as Homo sapiens)”, the “MIC (μg/mL) P. vulgaris” value in [1] (10 h cultivation at 37° C.) was 50 µg/mL. For the same substance, the “MIC (μg/mL) P. aeruginosa” value in experiment [2] (10 h cultivation at 37° C.) turned out to be 12.5 µg/mL. Moreover, the “MIC (μg/mL) E. cloacae” value in experiment [3] (10 h cultivation at 37° C.) worked out at 12.5 µg/mL. The “MIC (μg/mL) P. mirabilis” value in experiment [4] (10 h cultivation at 37° C.) was determined as 12.5 µg/mL. The same substance gave an MIC in [5] of 25 µg/mL. Besides, the “MIC (μg/mL) K. pneumonia” value in experiment [6] (10 h cultivation at 37° C.) amounted to 25 µg/mL. In experiment [7] (setting [12]), the “MIC (μg/mL) E. coli BL21” value came to 12.5 µg/mL. For the same substance, the “MIC (μg/mL) S. marcescens” value in [8] (10 h cultivation at 37° C.) came out at 50 µg/mL. For the same substance, in experiment [9] (10 h cultivation at 37° C.), the “MIC (μg/mL) A. hydrophila” value was 25 µg/mL. Besides, the “MIC (μg/mL) C. diversus” value in experiment [10] (10 h cultivation at 37° C.) was determined as 12.5 µg/mL. Moreover, the “MIC (μg/mL) M. catarrhalis” value in [11] (10 h cultivation at 37° C.) turned out to be 50 µg/mL.
